These results are taken from patent US20260327221A1, “INHIBITORS OF CYCLIC GMP-AMP SYNTHASE AND USES THEREOF” (Ventus Therapeutics U.S., Inc., priority 2023, published 2026).

Where only a bound is given, the exact number is not on record here.

Sequence of hcGAS (Q8N884 whole entry): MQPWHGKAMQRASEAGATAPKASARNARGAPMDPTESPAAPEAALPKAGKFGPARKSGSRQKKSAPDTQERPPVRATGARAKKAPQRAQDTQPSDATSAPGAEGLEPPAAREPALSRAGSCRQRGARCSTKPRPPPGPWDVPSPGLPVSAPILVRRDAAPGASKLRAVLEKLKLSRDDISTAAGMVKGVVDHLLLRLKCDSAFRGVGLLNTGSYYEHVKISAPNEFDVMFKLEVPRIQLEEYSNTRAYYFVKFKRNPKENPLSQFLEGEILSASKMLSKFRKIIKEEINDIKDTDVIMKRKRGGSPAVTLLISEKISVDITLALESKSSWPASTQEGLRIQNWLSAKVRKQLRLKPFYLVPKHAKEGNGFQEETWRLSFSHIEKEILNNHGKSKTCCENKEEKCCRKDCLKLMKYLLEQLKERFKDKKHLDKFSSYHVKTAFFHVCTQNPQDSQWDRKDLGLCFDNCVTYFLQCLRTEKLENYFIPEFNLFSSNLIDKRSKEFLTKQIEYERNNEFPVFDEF

One test deals with hcGAS (Homo sapiens, UniProt Q8N884). Description: hcGAS LCMS assay (direct measurement of cGAMP production by LC/MS). In kind it is biochemical. Conditions: 4 h incubation with enzyme and substrates; cGAMP production by LC/MS; class symbols; read-out: hcGAS LCMS IC50. In a few lines:
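Enzyme, substrates (ATP, GTP) and compound incubated 4 h, then quenched with acetonitrile/water containing 0.15 uM 13C/15N-labeled cGAMP internal standard. cGAMP formed quantified directly by LC/MS on HILIC amide column; IC50 values reported in potency bins.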
`COc1cccc(OC)c1-c1cc(C(=O)Nc2nnc(-n3nccc3N)s2)oc(=O)c1OCCCO` [Compound 40, N-(5-(5-amino-1H-pyrazol-1-yl)-1,3,4-thiadiazol-2-yl)-4-(2,6-dimethoxyphenyl)-3-(3-hydroxypropoxy)-2-oxo-2H-pyran-6-carboxamide]: the concentration for half-maximal inhibition (IC50) (commonly the concentration that inhibits the measured activity by half) was 0.5 to 1 nM.

As for `COCCOc1c(-c2c(O)cccc2Cl)cc(C(=O)Nc2nnc(-n3nccc3N)s2)oc1=O` [Compound 41, N-(5-(5-amino-1H-pyrazol-1-yl)-1,3,4-thiadiazol-2-yl)-4-(2-chloro-6-hydroxyphenyl)-3-(2-methoxyethoxy)-2-oxo-2H-pyran-6-carboxamide], the half-maximal inhibitory concentration (IC50) was less than 0.5 nM.

For the compound `COc1cccc(OC)c1-c1cc(C(=O)Nc2nnc(-n3nccc3N)s2)oc(=O)c1OCC1(OC)CC1` [Compound 42, N-(5-(5-amino-1H-pyrazol-1-yl)-1,3,4-thiadiazol-2-yl)-4-(2,6-dimethoxyphenyl)-3-((1-methoxycyclopropyl)methoxy)-2-oxo-2H-pyran-6-carboxamide], the half-maximal inhibitory concentration (IC50) was in the range of 0.5 to 1 nM.

Regarding `COc1cccc(OC)c1-c1cc(C(=O)Nc2nnc(-n3nccc3N)s2)oc(=O)c1OCCN1CCSCC1` [Compound 44, N-(5-(5-amino-1H-pyrazol-1-yl)-1,3,4-thiadiazol-2-yl)-4-(2,6-dimethoxyphenyl)-2-oxo-3-(2-thiomorpholinoethoxy)-2H-pyran-6-carboxamide], the IC50 was less than 0.5 nM.

As to `COCCOc1c(-c2c(Cl)cccc2C#N)cc(C(=O)Nc2nnc(-n3nccc3N)s2)oc1=O` [Compound 45, N-(5-(5-amino-1H-pyrazol-1-yl)-1,3,4-thiadiazol-2-yl)-4-(2-chloro-6-cyanophenyl)-3-(2-methoxyethoxy)-2-oxo-2H-pyran-6-carboxamide], the half-inhibitory concentration (IC50) was less than 0.5 nM.

As for `COc1cccc(OC)c1-c1cc(C(=O)Nc2nnc(-n3nccc3N)s2)oc(=O)c1OC[C@@H](C)O` [Compound 46A, (R)—N-(5-(5-amino-1H-pyrazol-1-yl)-1,3,4-thiadiazol-2-yl)-4-(2,6-dimethoxyphenyl)-3-(2-hydroxypropoxy)-2-oxo-2H-pyran-6-carboxamide], the concentration for half-maximal inhibition (IC50) fell in the range of 0.5 to 1 nM.

On to `COc1cccc(OC)c1-c1cc(C(=O)Nc2nnc(-n3nccc3N)s2)oc(=O)c1OC[C@H](C)O` [Compound 46B, (S)—N-(5-(5-amino-1H-pyrazol-1-yl)-1,3,4-thiadiazol-2-yl)-4-(2,6-dimethoxyphenyl)-3-(2-hydroxypropoxy)-2-oxo-2H-pyran-6-carboxamide], for which the IC50 is less than 0.5 nM.

Turning to `COC[C@H](C)Oc1c(-c2c(OC)cccc2OC)cc(C(=O)Nc2nnc(-n3nccc3N)s2)oc1=O` [Compound 47A, (S)—N-(5-(5-amino-1H-pyrazol-1-yl)-1,3,4-thiadiazol-2-yl)-4-(2,6-dimethoxyphenyl)-3-((1-methoxypropan-2-yl)oxy)-2-oxo-2H-pyran-6-carboxamide], the IC50 lay within 1 to 5 nM.

With `COC[C@@H](C)Oc1c(-c2c(OC)cccc2OC)cc(C(=O)Nc2nnc(-n3nccc3N)s2)oc1=O` [Compound 47B, (R)—N-(5-(5-amino-1H-pyrazol-1-yl)-1,3,4-thiadiazol-2-yl)-4-(2,6-dimethoxyphenyl)-3-((1-methoxypropan-2-yl)oxy)-2-oxo-2H-pyran-6-carboxamide], the concentration for half-maximal inhibition (IC50) was less than 0.5 nM.

Consider `COCCOc1c(-c2c(C#N)cccc2CO)cc(C(=O)Nc2nnc(-n3nccc3N)s2)oc1=O` [Compound 48, N-(5-(5-amino-1H-pyrazol-1-yl)-1,3,4-thiadiazol-2-yl)-4-(2-cyano-6-(hydroxymethyl)phenyl)-3-(2-methoxyethoxy)-2-oxo-2H-pyran-6-carboxamide], for which the IC50 was in the range of 0.5 to 1 nM.

For the compound `COCCOc1c(-c2nc(OC)ccc2OC)cc(C(=O)Nc2nnc(-n3nccc3N)s2)oc1=O` [Compound 49, N-(5-(5-amino-1H-pyrazol-1-yl)-1,3,4-thiadiazol-2-yl)-4-(3,6-dimethoxypyridin-2-yl)-3-(2-methoxyethoxy)-2-oxo-2H-pyran-6-carboxamide], the IC50 was in the range of 1 to 5 nM.

As for `COCCOc1c(-c2c(OC)cccc2OC)cc(C(=O)Nc2nnc(-c3ncsc3N)s2)oc1=O` [Compound 51, N-(5-(5-aminothiazol-4-yl)-1,3,4-thiadiazol-2-yl)-4-(2,6-dimethoxyphenyl)-3-(2-methoxyethoxy)-2-oxo-2H-pyran-6-carboxamide], the IC50 was 0.5 to 1 nM.

Turning to `COc1cccc(OC)c1-c1cc(C(=O)Nc2nnc(-n3nccc3N)s2)oc(=O)c1OC[C@H](C)OC` [Compound 53, (S)-N-(5-(5-amino-1H-pyrazol-1-yl)-1,3,4-thiadiazol-2-yl)-4-(2,6-dimethoxyphenyl)-3-(2-methoxypropoxy)-2-oxo-2H-pyran-6-carboxamide], the IC50 was less than 0.5 nM.

As for `COc1cccc(OC)c1-c1cc(C(=O)Nc2nnc(-n3nccc3N)s2)oc(=O)c1OC[C@@H](C)OC` [Compound 54, (R)-N-(5-(5-amino-1H-pyrazol-1-yl)-1,3,4-thiadiazol-2-yl)-4-(2,6-dimethoxyphenyl)-3-(2-methoxypropoxy)-2-oxo-2H-pyran-6-carboxamide], the IC50 lay within 0.5 to 1 nM.

With `COCCOc1c(-c2ncc(Cl)cc2OC)cc(C(=O)Nc2nnc(-n3nccc3N)s2)oc1=O` [Compound 58, N-(5-(5-amino-1H-pyrazol-1-yl)-1,3,4-thiadiazol-2-yl)-4-(5-chloro-3-methoxypyridin-2-yl)-3-(2-methoxyethoxy)-2-oxo-2H-pyran-6-carboxamide], the IC50 is 0.5 to 1 nM.

`COc1cccc(OC)c1-c1cc(C(=O)Nc2nnc(-n3nccc3N)s2)oc(=O)c1OCCC(C)(C)O` [Compound 59, N-(5-(5-amino-1H-pyrazol-1-yl)-1,3,4-thiadiazol-2-yl)-4-(2,6-dimethoxyphenyl)-3-(3-hydroxy-3-methylbutoxy)-2-oxo-2H-pyran-6-carboxamide]: the IC50 was less than 0.5 nM.

As for `COCCOc1c(-c2ncc(OC)cc2OC)cc(C(=O)Nc2nnc(-n3nccc3N)s2)oc1=O` [Compound 60, N-(5-(5-amino-1H-pyrazol-1-yl)-1,3,4-thiadiazol-2-yl)-4-(3,5-dimethoxypyridin-2-yl)-3-(2-methoxyethoxy)-2-oxo-2H-pyran-6-carboxamide], the concentration for half-maximal inhibition (IC50) lay in the range of 1 to 5 nM.

On to `COc1cccnc1-c1cc(C(=O)Nc2nnc(-n3nccc3N)s2)oc(=O)c1OCCOC(F)F` [Compound 61, N-(5-(5-amino-1H-pyrazol-1-yl)-1,3,4-thiadiazol-2-yl)-3-(2-(difluoromethoxy)ethoxy)-4-(3-methoxypyridin-2-yl)-2-oxo-2H-pyran-6-carboxamide], for which the IC50 is 1 to 5 nM.

Turning to `COC[C@H](CO)Oc1c(-c2c(OC)cccc2OC)cc(C(=O)Nc2nnc(-n3nccc3N)s2)oc1=O` [Compound 62A*, (S)—N-(5-(5-amino-1H-pyrazol-1-yl)-1,3,4-thiadiazol-2-yl)-4-(2,6-dimethoxyphenyl)-3-((1-hydroxy-3-methoxypropan-2-yl)oxy)-2-oxo-2H-pyran-6-carboxamide], the IC50 was in the range of 0.5 to 1 nM.

Consider `COC[C@@H](CO)Oc1c(-c2c(OC)cccc2OC)cc(C(=O)Nc2nnc(-n3nccc3N)s2)oc1=O` [Compound 62B*, (R)—N-(5-(5-amino-1H-pyrazol-1-yl)-1,3,4-thiadiazol-2-yl)-4-(2,6-dimethoxyphenyl)-3-((1-hydroxy-3-methoxypropan-2-yl)oxy)-2-oxo-2H-pyran-6-carboxamide], for which the IC50 lay within 0.5 to 1 nM.

Take `COC[C@H](O)COc1c(-c2c(OC)cccc2OC)cc(C(=O)Nc2nnc(-n3nccc3N)s2)oc1=O` [Compound 63A*, (S)—N-(5-(5-amino-1H-pyrazol-1-yl)-1,3,4-thiadiazol-2-yl)-4-(2,6-dimethoxyphenyl)-3-(2-hydroxy-3-methoxypropoxy)-2-oxo-2H-pyran-6-carboxamide]: the IC50 is 0.5 to 1 nM.

In the case of `COc1cccc(OC)c1-c1cc(C(=O)Nc2nnc(-n3nccc3N)s2)oc(=O)c1OCCN1CC2(CSC2)C1` [Compound 65, 3-(2-(2-thia-6-azaspiro[3.3]heptan-6-yl)ethoxy)-N-(5-(5-amino-1H-pyrazol-1-yl)-1,3,4-thiadiazol-2-yl)-4-(2,6-dimethoxyphenyl)-2-oxo-2H-pyran-6-carboxamide], the 50% inhibitory concentration (IC50) lay in the range of 0.5 to 1 nM.

On to `COCCOc1c(-c2c(C#N)ccnc2OC)cc(C(=O)Nc2nnc(-n3nccc3N)s2)oc1=O` [Compound 66, N-(5-(5-amino-1H-pyrazol-1-yl)-1,3,4-thiadiazol-2-yl)-4-(4-cyano-2-methoxypyridin-3-yl)-3-(2-methoxyethoxy)-2-oxo-2H-pyran-6-carboxamide], for which the IC50 fell in the range of 0.5 to 1 nM.

Turning to `COCCOc1c(-c2c(OC)cccc2OCCC#N)cc(C(=O)Nc2nnc(-n3nccc3N)s2)oc1=O` [Compound 67, N-(5-(5-amino-1H-pyrazol-1-yl)-1,3,4-thiadiazol-2-yl)-4-(2-(2-cyanoethoxy)-6-methoxyphenyl)-3-(2-methoxyethoxy)-2-oxo-2H-pyran-6-carboxamide], the IC50 lay in the range of 1 to 5 nM.

`COc1cccc(OC)c1-c1cc(C(=O)Nc2nnc(-n3nccc3N)s2)oc(=O)c1OCCOCCO` [Compound 68, N-(5-(5-amino-1H-pyrazol-1-yl)-1,3,4-thiadiazol-2-yl)-4-(2,6-dimethoxyphenyl)-3-(2-(2-hydroxyethoxy)ethoxy)-2-oxo-2H-pyran-6-carboxamide]: the IC50 is less than 0.5 nM.

As for `COc1cccc(OC)c1-c1cc(C(=O)Nc2nnc(-n3nccc3N)s2)oc(=O)c1OCCN1CCCCC1` [Compound 69, N-(5-(5-amino-1H-pyrazol-1-yl)-1,3,4-thiadiazol-2-yl)-4-(2,6-dimethoxyphenyl)-2-oxo-3-(2-(piperidin-1-yl)ethoxy)-2H-pyran-6-carboxamide], the IC50 was 5 to 20 nM.

The same test, now with this note: compared with Compound 1, from activity classes of Table D.
For `COCCOc1c(-c2c(O)cccc2Cl)cc(C(=O)Nc2nnc(-n3nccc3N)s2)oc1=O` [Compound 41, N-(5-(5-amino-1H-pyrazol-1-yl)-1,3,4-thiadiazol-2-yl)-4-(2-chloro-6-hydroxyphenyl)-3-(2-methoxyethoxy)-2-oxo-2H-pyran-6-carboxamide], the “cGAS potency relative to Compound 1” value is “improved cGAS potency”.

`COc1cccc(OC)c1-c1cc(C(=O)Nc2nnc(-n3nccc3N)s2)oc(=O)c1OCCN1CCSCC1` [Compound 44, N-(5-(5-amino-1H-pyrazol-1-yl)-1,3,4-thiadiazol-2-yl)-4-(2,6-dimethoxyphenyl)-2-oxo-3-(2-thiomorpholinoethoxy)-2H-pyran-6-carboxamide]: the “cGAS potency relative to Compound 1” value is reported as “improved cGAS potency”.

Staying with this test, now noted: hcGAS 0.5 nM; ATP 100 μM; GTP 100 μM; dsDNA 25 nM; pH 7.4; 4 h incubation; read-out: hcGAS inhibition IC50 (activity class, Table D).
Turning to `COCCOc1c(-c2c(O)cccc2Cl)cc(C(=O)Nc2nnc(-n3nccc3N)s2)oc1=O` [Compound 41, N-(5-(5-amino-1H-pyrazol-1-yl)-1,3,4-thiadiazol-2-yl)-4-(2-chloro-6-hydroxyphenyl)-3-(2-methoxyethoxy)-2-oxo-2H-pyran-6-carboxamide], the 50% inhibitory concentration (IC50) was less than 0.5 nM.

As to `COc1cccc(OC)c1-c1cc(C(=O)Nc2nnc(-n3nccc3N)s2)oc(=O)c1OCCN1CCSCC1` [Compound 44, N-(5-(5-amino-1H-pyrazol-1-yl)-1,3,4-thiadiazol-2-yl)-4-(2,6-dimethoxyphenyl)-2-oxo-3-(2-thiomorpholinoethoxy)-2H-pyran-6-carboxamide], the half-inhibitory concentration (IC50) is less than 0.5 nM.

Turning to `COCCOc1c(-c2c(Cl)cccc2C#N)cc(C(=O)Nc2nnc(-n3nccc3N)s2)oc1=O` [Compound 45, N-(5-(5-amino-1H-pyrazol-1-yl)-1,3,4-thiadiazol-2-yl)-4-(2-chloro-6-cyanophenyl)-3-(2-methoxyethoxy)-2-oxo-2H-pyran-6-carboxamide], the IC50 was less than 0.5 nM.
